Columns and labels:
[1] = Partition coefficient (logD7.5); format: physicochemical; settings: octanol/water, pH 7.5
[2] = molecular target: Carbonic anhydrase 2 (Bos taurus) (UniProt P00921); experiment: Evaluation of binding constant to bovine carbonic anhydrase II, measured by fluorescence in 20 mM phosphate buffer (pH=7.5)
[3] = Evaluation of ionization constant between octanol and 20 mM phosphate buffer (pH =7.5); format: physicochemical; settings: octanol/20 mM phosphate buffer
[4] = molecular target: Carbonic anhydrase 2 (Bos taurus) (UniProt P00921); experiment: Compound was tested for the binding affinity towards Carbonic anhydrase II by competitive fluorescence assay with dansylamide

Chain of Carbonic anhydrase 2 (Bos taurus) (P00921 2-260 limits assumed): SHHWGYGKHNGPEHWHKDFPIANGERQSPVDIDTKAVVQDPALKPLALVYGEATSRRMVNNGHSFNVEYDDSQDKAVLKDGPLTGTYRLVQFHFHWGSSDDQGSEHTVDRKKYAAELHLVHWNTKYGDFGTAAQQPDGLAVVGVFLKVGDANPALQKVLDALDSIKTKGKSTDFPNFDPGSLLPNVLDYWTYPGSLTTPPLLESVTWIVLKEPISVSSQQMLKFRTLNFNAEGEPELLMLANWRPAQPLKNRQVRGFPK

Row | SMILES | logD [1] | Kb [2] [M⁻¹] | pKa [3] | Kb [4] [M⁻¹]
1 | CCCCC(CC)C(=O)NCc1ccc(S(N)(=O)=O)cc1 (centres undefined) | 1.84 | 7.1e+06 |  | 
2 | CCCCNC(=O)c1ccc(S(N)(=O)=O)cc1 | 1.11 | 6.3e+07 |  | 
3 | CCCCCCNC(=O)c1ccc(S(N)(=O)=O)cc1 | 2.21 | 1.3e+08 |  | 
4 | CC1(C)C(C(=O)NCc2ccc(S(N)(=O)=O)cc2)C1(C)C | 1.57 | 1.1e+07 |  | 
5 | CC(C)CCC(=O)NCc1ccc(S(N)(=O)=O)cc1 | 1.04 | 4.8e+06 |  | 
6 | CCCN(CCC)C(=O)c1ccc(S(N)(=O)=O)cc1 | 2.08 | 1.9e+07 |  | 
7 | NS(=O)(=O)c1ccc(CNC(=O)C2CCCCC2)cc1 | 1.08 | 7.6e+06 |  | 
8 | NS(=O)(=O)c1ccc(CNC(=O)C(F)(F)C(F)(F)F)cc1 |  |  | 9.8 | 
9 | CCC(CC)C(=O)NCc1ccc(S(N)(=O)=O)cc1 | 1 | 2.9e+06 |  | 
10 | NS(=O)(=O)c1ccc(CNC(=O)CC2CCCC2)cc1 | 1.08 | 7.6e+06 |  | 
11 | NS(=O)(=O)c1ccc(C(=O)NCC(F)(F)F)cc1 | 0.845 | 4.7e+07 |  | 
12 | CCNC(=O)c1ccc(S(N)(=O)=O)cc1 | 0.176 | 5.9e+06 |  | 
13 | NS(=O)(=O)c1ccc(CNC(=O)C2CCCCCC2)cc1 | 1.49 | 1e+07 |  | 
14 | CC(=O)NCc1ccc(S(N)(=O)=O)cc1 |  |  | 10.2 | 
15 | CCCCCCC(=O)NCc1ccc(S(N)(=O)=O)cc1 | 1.46 | 5.7e+06 |  | 
16 | NS(=O)(=O)c1ccc(CNC(=O)CC2CCCCC2)cc1 | 1.62 | 1.3e+07 |  | 
17 | NS(=O)(=O)c1ccc(C(=O)NCC(F)(F)C(F)(F)C(F)(F)F)cc1 | 2.04 | 1.1e+09 |  | 
18 | CC(C)(C)CC(=O)NCc1ccc(S(N)(=O)=O)cc1 | 1.04 | 7.1e+06 |  | 
19 | CCN(CC)C(=O)c1ccc(S(N)(=O)=O)cc1 | 0.929 | 1.7e+07 |  | 
20 | NS(=O)(=O)c1ccc(CNC(=O)C2CCCC2)cc1 | 0.778 | 6e+06 |  | 
21 | CCCC(C)CC(=O)NCc1ccc(S(N)(=O)=O)cc1 (centres undefined) | 1.32 | 5.7e+06 |  | 
22 | NS(=O)(=O)c1ccc(C(=O)NCC(F)(F)C(F)(F)F)cc1 | 1.52 | 1.8e+08 |  | 
23 | CCCCCC(=O)NCc1ccc(S(N)(=O)=O)cc1 | 1.23 | 5.1e+06 |  | 
24 | NS(=O)(=O)c1ccc(CNC(=O)CCC2CCCC2)cc1 | 1.63 | 1.2e+07 |  | 
25 | NS(=O)(=O)c1ccc(CNC(=O)C(F)(F)F)cc1 |  |  | 10.1 | 
26 | CCCNC(=O)c1ccc(S(N)(=O)=O)cc1 | 0.531 | 2.6e+07 |  | 
27 | CCC(=O)NCc1ccc(S(N)(=O)=O)cc1 |  |  | 9.9 | 
28 | CN(C)C(=O)c1ccc(S(N)(=O)=O)cc1 | 0.146 | 1.1e+07 |  | 
29 | CCCCCCCC(=O)NCc1ccc(S(N)(=O)=O)cc1 | 1.84 |  |  | 1.2e+07

— ChEMBL document CHEMBL1128712, “Increasing binding constants of ligands to carbonic anhydrase by using "greasy tails"” (J Med Chem, 1995)
